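96-well plates; 48 h exposure; 5 concentrations. Endpoints by linear interpolation between flanking doses. Not reached: highest tested concentration assigned. At the TGI there is no net growth.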 Where only a bound is given, the exact number is not on record here.

Results on two molecules are retold here after PubChem BioAssay (NCI).

Test systems include SR leukemia; 786-0 renal; M14 melanoma; DMS 273 small cell lung; SNB-75 CNS; COLO 205 colon; P388/ADR leukemia; P388 leukemia; DLD-1 colon; SNB-78 CNS; RPMI-8226 leukemia.
Assay in all cases: NCI tumour cell line growth inhibition, 48 h

For `COc1ccc(CCCC(=O)O)c(C)c1`, the TGI in the assay with SR leukemia, with 786-0 renal and with M14 melanoma was more than 100 µM each time.

For the molecule `NC(Cc1c[nH]c2ccccc12)C(=O)O` (stereo unspecified), the TGI in the assay with DMS 273 small cell lung, in the assay on SNB-75 CNS, with COLO 205 colon, with P388/ADR leukemia, with P388 leukemia and in the assay on DLD-1 colon was more than 300 µM throughout. Also, the TGI in the assay with SNB-78 CNS and in the assay on RPMI-8226 leukemia was more than 300 µM throughout.
